Measured values from patent US20250387422A1, “FORMULATION OF AN AMPHOTERICIN B HYBRID AMIDE DERIVATIVE IN DSGPEG2K MICELLES” (The Board of Trustees of the University of Illinois, priority 2022, published 2025).
Entries after “also recorded” stand apart in the source; their conditions may differ.

How the values were obtained:
Type in all cases: physicochemical
[1] = Solubility of AM-2-19-FB in D5W/DSG-PEG2000; details: aqueous with cosolvent or surfactant or cyclodextrin
[2] = In vitro plasma compatibility of AM-2-19 in human plasma
Excerpt: The in vitro plasma compatibility of AM-2-19 in human plasma is represented below: […]

[3] = Solution stability of AM-2-19 in IV-compatible solvents (FIG. 1); details: IV-compatible solvents such as 5% dextrose in water (D5W)
[4] = ratio 1:0.1, final concentration AM-2-19 0.09 mg/mL
[5] = ratio 1:0.1, final concentration AM-2-19 0.18 mg/mL
[6] = ratio 1:0.1, final concentration AM-2-19 0.45 mg/mL
[7] = ratio 1:1, final concentration AM-2-19 0.50 mg/mL
[8] = ratio 1:1, final concentration AM-2-19 1.00 mg/mL
[9] = ratio 1:1, final concentration AM-2-19 2.50 mg/mL

solubility ([1]; in D5W/DSG-PEG2000 (1:3 molar ratio) without the acetate buffer): ~100 µg/mL | solubility ([1]; in D5W/DSG-PEG2000 with acetate buffer): > 8000 µg/mL | Compatibility [2, 4]: compatible | Precipitate/Pellet or Coagulation Observed [2, 4]: None | Compatibility [2, 5]: compatible | Precipitate/Pellet or Coagulation Observed [2, 5]: None | Compatibility [2, 6]: Not compatible | Precipitate/Pellet or Coagulation Observed [2, 6]: Pellet (Very Light) | Compatibility [2, 7]: Not compatible | Precipitate/Pellet or Coagulation Observed [2, 7]: Pellet (Light) | Compatibility [2, 8]: Not compatible | Precipitate/Pellet or Coagulation Observed [2, 8]: Pellet (Moderate) | Compatibility [2, 9]: Not compatible | Precipitate/Pellet or Coagulation Observed [2, 9]: Pellet (Severe)
SMILES: CC1OC(OC2/C=C/C=C/C=C/C=C/C=C/C=C/C=C/[C@H](C)[C@@H](O)[C@@H](C)[C@H](C)OC(=O)C[C@H](O)C[C@H](O)CC[C@@H](O)[C@H](O)C[C@H](O)C[C@]3(O)C[C@H](O)[C@@H](C(=O)NC(CO)CO)C(C2)O3)C(O)C(N)C1O (stereo partly drawn) [AM-2-19]
solution stability [3]: unstable even over the course of hours; also recorded: lacks solution stability
